Article PMC8602566 (Frontiers in Oncology, 2021)

What was measured:
[1] = Hepatic microsome stability assay, human; type: in vitro ADME; settings: human liver microsomes, NADPH, 37°C, pH 7.4
Description: Metabolic stability was assessed in the presence of human, mouse, and rat liver microsomes (XenoTech, Lenexa, KS, USA). All liquid dispenses and transfer steps were performed with the Freedom Evo automated liquid handler (Tecan US). Compound stock solutions were initially prepared in 100% DMSO and subsequently diluted in acetonitrile for the assay. The pH of the reactions was kept at 7.4 with potassium phosphate buffer. The reaction wells were prepared by adding microsomes to a well and allowed to warm to 37°C. Then, compound was added to each well. The reactions were […] by adding cofactor reduced nicotinamide adenine dinucleotide phosphate (NADPH) to the reaction well containing microsomes and compounds. Negative controls received buffer only. Immediately after reactions started, 0-min aliquots were promptly collected and mixed in a separate well with ice cold acetonitrile to quench the reactions. The remainder of the reaction volume was incubated at 37°C with shaking. An additional aliquot was collected at 60 min after the start of the reaction and promptly quenched with ice cold acetonitrile. Samples were vortexed and centrifuged at 3,500 rpm for 10 min. The amount of compound in the supernatant was determined by liquid chromatography–tandem mass spectrometry (LC/MS/MS) (Thermo Fischer Scientific, San Jose, CA, USA), and the percent of parent compound remaining after 60 min was calculated. Results are the mean of each reaction triplicate, normalized to the internal standard, and expressed as the percent of compound remaining after the incubation time.
Structures that are active in vitro may not be potent in vivo due to their susceptibility to metabolism in the body. We then thoroughly examined the liver microsomal metabolic stability of DMC-HA across three different species (Table 3). […] In addition, the half-life of DMC-HA in human microsome is generally two to three times longer than those in mice and rats. Collectively, the in vitro liver microsomal stability of DMC-HA is favorable, guaranteeing its further in vivo studies.

[2] = test system: U87 cells; test: Cell apoptosis assay by flow cytometry (Annexin V-FITC/PI); type: cell-based, Human; settings: 10 μM, Annexin V/PI (control 3.3%)
Description: For apoptosis assays, 5 × 10^5 U87 cells were seeded into six-well plates for 24 h and treated with a range of concentrations of DMC-HA for 36 h. Annexin V-FITC/PI apoptosis detection kit was used to perform the apoptotic assay following the manufacturer’s instructions (Beyotime, Jiangsu, China). After treatment, 1 × 10^6 cells were washed using 1 ml binding buffer for three times, then centrifuged at 300×g and stained with 10 μl Annexin V-FITC solution at 37°C for 15 min. Before detecting, 5 μl PI solution was added to the samples, and the apoptotic cells were detected using flow cytometry (FACSCalibur BD, BD Biosciences, San Jose, CA, USA).
To further investigate the apoptotic effect of DMC-HA on GBM, we treated U87 cells with increasing concentrations of DMC-HA. After 48 h, the morphological changes of DMC-HA-treated U87 cells were observed, such as cell shrinking, rounding, and detachment (Figure 4A). […] To further confirm whether DMC-HA could induce apoptosis in U87 cells, cells were stained with Annexin V and PI after treatment with various concentrations of DMC-HA.

[3] = test system: Human leukemia cell line K562; test: MTT cell viability assay, K562; type: cell-based; settings: K562, MTT, 72 h, read-out: IC50 antiproliferative activity K562
Description: (§1) Cell viability was measured using the 3-(4,5-dimethylthiazol-2-yl)-2,5-diphenyltetrazolium bromide (MTT) assay and was expressed as a ratio to the absorbance value at 570 nm of the control cells.

[4] = target: HDAC3 (Homo sapiens, UniProt O15379); test: HDACs inhibition assay, HDAC3
HDAC3, sequence (O15379 whole entry): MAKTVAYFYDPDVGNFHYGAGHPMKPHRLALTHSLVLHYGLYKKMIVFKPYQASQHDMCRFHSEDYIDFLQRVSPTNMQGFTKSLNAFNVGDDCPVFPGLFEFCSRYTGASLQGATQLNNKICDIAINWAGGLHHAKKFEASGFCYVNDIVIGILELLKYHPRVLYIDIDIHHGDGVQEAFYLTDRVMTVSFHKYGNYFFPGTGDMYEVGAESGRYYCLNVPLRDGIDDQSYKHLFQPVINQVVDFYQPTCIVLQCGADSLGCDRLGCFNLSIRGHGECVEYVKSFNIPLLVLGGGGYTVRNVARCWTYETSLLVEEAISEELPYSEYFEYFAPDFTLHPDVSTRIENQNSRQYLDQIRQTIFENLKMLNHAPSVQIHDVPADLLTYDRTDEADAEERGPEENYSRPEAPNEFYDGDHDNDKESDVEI
HDAC3, sequence (Q9Y618 395-489 partner limits assumed): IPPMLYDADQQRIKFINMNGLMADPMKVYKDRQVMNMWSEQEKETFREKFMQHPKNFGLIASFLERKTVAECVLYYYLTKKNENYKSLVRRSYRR
Description: (§2) The inhibition assays for HDACs were carried out according to standard protocols. […] The reaction was stopped by the addition of 45 μl of 100 mM HEPES (pH 7.5) and 0.08% sodium dodecyl sulfate (SDS). The substrate and the product were then separated electrophoretically using a LabChip 3000 system (Caliper Life Sciences, Hopkinton, MA) with blue laser excitation and green fluorescence detection.

[5] = test system: U87 tumor xenograft; settings: nude mice, 20 mg/kg once daily
Excerpt: Six-week-old BALB/c nude mice were purchased from Shanghai Experimental Animal Center of Chinese Academy of Science (Shanghai, China). All animal protocols were implemented according to the guidelines of the Association for Assessment and Accreditation of Laboratory Animal Care. U87 cells (3 × 10^6) were subcutaneously implanted into the right flank of mice. After 6 days of tumor growth, tumors grew to approximately 100 mm^3, and mice were randomly divided into three groups with nine animals in each group. […] The control group was intraperitoneally injected an equal volume of DMSO. Body weights and tumor volumes were measured every 2 days. After treatment, all of the mice were sacrificed, and the tumors were harvested, weighted, and photographed. The tumor volume was calculated according the formula: tumor volume = (length × width^2)/2.
U87 cells were subcutaneously inoculated into the right flank of mice.

[6] = target: HDAC4 (Homo sapiens, UniProt P56524); test: HDACs inhibition assay, HDAC4
HDAC4, sequence (P56524 whole entry): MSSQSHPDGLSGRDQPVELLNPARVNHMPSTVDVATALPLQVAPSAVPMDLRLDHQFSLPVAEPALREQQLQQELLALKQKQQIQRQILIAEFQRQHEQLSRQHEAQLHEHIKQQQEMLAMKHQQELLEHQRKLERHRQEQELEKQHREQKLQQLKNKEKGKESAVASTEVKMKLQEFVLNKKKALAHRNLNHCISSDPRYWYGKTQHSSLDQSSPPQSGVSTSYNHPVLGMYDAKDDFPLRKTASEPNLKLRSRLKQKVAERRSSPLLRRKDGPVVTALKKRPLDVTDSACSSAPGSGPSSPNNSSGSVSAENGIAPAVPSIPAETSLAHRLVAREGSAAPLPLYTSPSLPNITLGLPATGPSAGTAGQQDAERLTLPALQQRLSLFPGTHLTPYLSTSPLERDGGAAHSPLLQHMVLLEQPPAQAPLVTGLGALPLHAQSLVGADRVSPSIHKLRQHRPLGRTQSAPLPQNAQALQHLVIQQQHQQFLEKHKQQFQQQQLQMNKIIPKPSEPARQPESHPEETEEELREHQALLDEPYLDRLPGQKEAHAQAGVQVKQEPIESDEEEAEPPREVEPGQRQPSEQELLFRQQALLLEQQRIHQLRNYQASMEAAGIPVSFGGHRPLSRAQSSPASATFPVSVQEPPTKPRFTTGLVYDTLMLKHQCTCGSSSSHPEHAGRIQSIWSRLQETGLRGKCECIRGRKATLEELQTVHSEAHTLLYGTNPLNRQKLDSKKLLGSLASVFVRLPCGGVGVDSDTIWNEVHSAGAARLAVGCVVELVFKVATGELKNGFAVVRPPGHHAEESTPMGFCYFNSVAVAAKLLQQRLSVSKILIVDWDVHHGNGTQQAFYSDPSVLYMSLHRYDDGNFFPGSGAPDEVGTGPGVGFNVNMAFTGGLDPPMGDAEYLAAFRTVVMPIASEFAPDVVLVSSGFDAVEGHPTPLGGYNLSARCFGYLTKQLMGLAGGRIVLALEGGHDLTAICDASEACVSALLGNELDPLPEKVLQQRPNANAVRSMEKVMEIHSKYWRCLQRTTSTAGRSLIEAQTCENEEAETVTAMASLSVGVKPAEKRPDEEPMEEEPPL
Description: as §2

[7] = test system: Human umbilical vein endothelial cells HUVEC; test: MTT cell viability assay, HUVEC; type: cell-based
Description: as §1

[8] = target: HDAC11 (Homo sapiens, UniProt Q96DB2); test: HDACs inhibition assay, HDAC11
HDAC11, sequence (Q96DB2 whole entry): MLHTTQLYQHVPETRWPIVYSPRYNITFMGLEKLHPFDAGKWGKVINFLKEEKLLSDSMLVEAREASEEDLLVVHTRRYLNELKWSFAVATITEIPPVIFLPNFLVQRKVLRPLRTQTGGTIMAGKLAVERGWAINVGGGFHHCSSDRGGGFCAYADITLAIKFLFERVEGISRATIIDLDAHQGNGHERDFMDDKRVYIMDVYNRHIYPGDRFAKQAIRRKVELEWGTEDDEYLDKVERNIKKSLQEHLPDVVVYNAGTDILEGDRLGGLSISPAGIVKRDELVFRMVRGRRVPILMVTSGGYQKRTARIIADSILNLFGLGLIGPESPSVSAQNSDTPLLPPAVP
Description: as §2

[9] = test system: Human glioblastoma cell line U251; test: MTT cell viability assay, U251; type: cell-based; settings: U-251, MTT, 72 h, read-out: IC50 antiproliferative activity U251
Description: as §1

COc1cc(/C=C/C(=O)CC(=O)/C=C/c2ccc(/C=C/C(=O)NO)cc2)ccc1O [DMC-HA]
Human Liver Microsomal Stability T1/2 [1]: 1.53 h | microsomal CLint [1]: 17.5 µL/min/mg | total apoptotic cells [2]: 90.0% | IC50 [3]: 1950 ± 710 nM | IC50 [4]: 1670 nM | effects on the body weight [5]: no effects on the body weight | toxicity during the administration period [5]: no observable toxicity | tumor weight ([5]; compared with controls): significantly lower tumor weight | inhibition on the tumor volume ([5]; oral route / intraperitoneal, vs. control): 52.1% | IC50 [6]: > 10000 nM | IC50 ([7]; Homo sapiens, HUVEC, MTT, 72 h, normal cells, read-out: IC50 HUVEC): 27400 ± 3940 nM | toxicity to human umbilical vein endothelial cells (HUVECs) ([7]; in words): low toxicity | IC50 [8]: > 10000 nM | IC50 [9]: 2990 ± 480 nM
